Assay results published in patent publication US4798807A, “Monoclonal antibodies and method for detecting dioxins and dibenzofurans” (priority 1986, dated 1989).

How the values were obtained:
monoclonal antibody DD-1 = assay: Competition ELISA with monoclonal antibody DD-1; format: binding, Biozzi mice; conditions: competitor vs monoclonal antibody DD-1; plate coated with A-triCDD-RSA
Method: (§1) In this case the hybridomas were then screened for their ability to distinguish A-triCDD-BSA and A-triCDD-RSA from BSA and RSA. On the basis of this initial screen about 25 stable, antibody-producing colonies were isolated, subcloned, and frozen. The remaining clones were again screened for their abilities to recognize free TCDD in suspension. Experimentally, on the order of 10-100 nanograms of TCDD in hexane was dried, 0.5 ml of saline with BSA (1 mg/ml) was added and sonificated for 2 hrs. […] Identical procedures were followed for other dioxin isomers. A dilution series in microtiter plate wells was then made with the suspended TCDD, antibody adde, and the competition ELISA completed. Competition ELISA test procedures are discussed in detail in the following reference: Butt, W. R. (1984) "Practical Immunoassay: The State of the Art", Marcel Dekker, Inc., N.Y., N.Y.
(§2) A large part of the success that we have had in characterizing the binding specificities of our monoclonal antibodies comes from having developed a reliable competition ELISA protocol. Our preferred assay starts from stock solutions at 10 ppm in hexane of the various compounds listed in Table I. 10 μl of hexane solution is aliquoted into a small vial, evaporated under a stream of nitrogen gas, and 500 μl of a 1 mg/ml solution of BSA in phosphate buffered saline with 0.1% BSA is added. The vial is capped and placed in an ultrasonic cleaning waterbath for two hours. Two hours of sonification gives a more reproducible assay than does an hour. During the sonification, the hexane appears to evaporate completely, and one is left with an aqueous solution containing the dioxin. Microtiter plates coated with A-triCDD-RSA are blocked with a three percent solution of ovalbumin and a two-fold dilution series of sonificated dioxin-BSA is then made, covering the range 100 ppb-0.1 ppb. In each well of the plate 100 μl of the sonificated dioxin-BSA solution is mixed with n equal volume of antibody. The antibody partitions between the dioxin adsorbed to the BSA, and the A-tri-CDD-RSA on the plate.
(§3) A-TriCDD-RSA was adsorbed onto the surface of the wells of a microtiter plate. The various competitors listed were suspended in saline containing bovine serum albumin (BSA). These solutions were made by sonificating 10 μl of dioxin solution in hexane with 500 μl of saline-BSA. A dilution series of these dioxin-BSA solutions was then made covering the range of 100-0.2 ppb, and placed in the microtiter plate wells. An equal volume of DD-1 monoclonal antibody was then added, and allowed to react for 1 hour. Tne antibody binds either to the A-TriCDD-RSA on the plate or the dioxin in solution. After the hour, the solution phase is removed, the plate washed, and it is reincubated for an hour with peroxidase-conjugated goat-anti-mouse-immunoglobulins. A second washing is then done, and substrate (ABTS) added to the peroxidase. The enzyme-antibody conjugate and substrate function as a "developer", allowing the visualization of the DD-1 bound to the A-triCDD-RSA on the plate. Results are then expressed as a fraction of the response in wells with no competitor. […] At about 20 ppb of 2,3,7,8-TCDD the relative ELISA response is half of control, meaning that half the DD-1 antibody bound to the solution phase dioxin and half bound to the A-triCDD-RSA on the plate. For 1,2,3,7(8)-TCDD, 50% inhibition occurs at about 4 ppb, indicating the DD-1 prefers 1,2,3,7(8)-TCDD to 2,3,7,8-TCDD.
(§4) The FIGURE and Table II show representative competition data using several chlorinated compounds as competitors. From such data, one can determine the concentration required to inhibit antibody binding by 50% (I50). Table II lists the I50 for all compounds tested with the antibodies. In reporting these values, factors of two are about the limit of significance. […] The binding specificities of these antibodies are highly desirable, since they prefer the most toxic of the dioxin and dibenzofuran isomers.

monoclonal antibody DD-3 = assay: Competition ELISA with monoclonal antibody DD-3; format: binding, BALB/c mice; conditions: competitor vs monoclonal antibody DD-3; plate coated with A-triCDD-RSA
Method: as §1, §2, §3, §4

monoclonal antibody DD-4 = assay: Competition ELISA with monoclonal antibody DD-4; format: binding, BALB/c mice; conditions: competitor vs monoclonal antibody DD-4; plate coated with A-triCDD-RSA
Method: as §1, §2, §3, §4

monoclonal antibody DD-5 = assay: Competition ELISA with monoclonal antibody DD-5; format: binding, Biozzi mice; conditions: competitor vs monoclonal antibody DD-5; plate coated with A-triCDD-RSA
Method: as §1, §2, §3, §4

monoclonal antibody DD-6 = assay: Competition ELISA with monoclonal antibody DD-6; format: binding, Biozzi mice; conditions: competitor vs monoclonal antibody DD-6; plate coated with A-triCDD-RSA
Method: as §1, §2, §3, §4

| Compound | I50 (inhibits antibody binding by 50%) (monoclonal antibody DD-1) [ng] | I50 (inhibits antibody binding by 50%) (monoclonal antibody DD-3) [ng] | I50 (inhibits antibody binding by 50%) (monoclonal antibody DD-4) [ng] | I50 (inhibits antibody binding by 50%) (monoclonal antibody DD-5) [ng] | I50 (inhibits antibody binding by 50%) (monoclonal antibody DD-6) [ng] |
| --- | --- | --- | --- | --- | --- |
| O=C(O)COc1ccc(Cl)cc1Cl [2,4-Dichlorophenoxyacetic, 2,4-Dichlorophenoxy-acetic] | > 2000 | > 2000 | > 2000 |  |  |
| Clc1ccc(-c2cc(Cl)c(Cl)c(Cl)c2Cl)c(Cl)c1 [2,2',3,4,4',5-Hexa-CBP] | > 200 | > 200 | > 200 | > 10 | > 200 |
| ClC1=C(Cl)C2(Cl)C3C4CC(C5OC45)C3C1(Cl)C2(Cl)Cl (stereo not shown) [Endrin] | > 2000 | > 2000 | > 2000 | > 2000 | > 2000 |
| O=[N+]([O-])c1cc(Cl)ccc1Cl [2,5-Dichloronitrobenzene, 2,5-Dichloronitro-benzene] | 90 | 2000 | > 2000 | 2000 | 700 |
| ClC1=C(Cl)C2(Cl)C3C(Cl)C=CC3C1(Cl)C2(Cl)Cl (stereo not shown) [Heptachlor] | > 2000 | > 2000 | > 2000 | > 2000 | > 2000 |
| Clc1ccc(Cl)c(-c2c(Cl)c(Cl)c(Cl)c(Cl)c2Cl)c1 [2,2',3,4,5,5',6-Hepta-CBP] | > 200 | > 200 | > 200 | > 10 | > 200 |
| Toxaphene |  | > 2000 | > 2000 | > 2000 | > 2000 |
| O=[N+]([O-])c1cc(Cl)cc(Cl)c1O [2,4-Dichloro-6-nitrophenol, 2,4-Dichloro-6-nitro-phenol] | > 2000 | > 2000 | > 2000 | > 2000 | > 2000 |
| Oc1cc(Cl)c(Cl)cc1Cl [2,4,5-Trichlorophonol] | 800 | > 2000 | > 2000 | > 2000 | > 2000 |
| Clc1ccc(-c2ccc(Cl)c(Cl)c2)cc1Cl [3,3',4,4'-TCBP] | > 200 | > 200 | > 200 | > 10 | 100 |
| Clc1ccc2c(c1)Oc1c(Cl)c(Cl)c(Cl)c(Cl)c1O2 [1,2,3,4,7-penta-CDD] | > 2 | > 2 | > 2 |  | > 2 |
| Brc1cc2c(cc1Br)Oc1cc(Br)c(Br)cc1O2 [2,3,7,8-tetra-Bromo-DD] | 0.05 | 1 | 1 |  | > 2 |
